We go through 4 compounds from patent publication US6329339A, “Pharmaceutical antiviral composition comprising glycyrrhizic acid and at least one protein endowed with antiviral activity” (priority 1997, dated 2001).

For data set [1], the system named is Herpes Simplex Virus type 1. The settings on record: cited from earlier work.
The conditions of data set [2]: in vivo, cited from earlier work.
Data set [3] relates to HSV1. Kind of data set: Inhibition of HSV1 viral plaques on VERO cells. The settings on record: for Inhibition (%) of viral plaques with various lysozymes: percentage of the control ± standard deviation. The format is cell-based, Herpes Simplex Virus type 1.
Data set [4] concerns virus (viral replication). Conditions: cited from earlier work.
For data set [5], the system named is infected cells, synthesis of glyco-proteins. Conditions: cited from earlier work.
Data set [6] relates to normal cells, synthesis of glyco-proteins. The settings on record: cited from earlier work.
For data set [7], the system named is normal cells, synthesis of proteins. The settings on record: even at doses of 4 mM; cited from earlier work.
Data set [8] concerns infected cells, synthesis of proteins. Conditions: even at doses of 4 mM; cited from earlier work.
Data set [9] concerns HSV1. Conditions: 8 mM, cited from earlier work.
Data set [10] concerns HSV1. The settings on record: Arch. Virol. 1995; cited from earlier work.
Data set [11] relates to human immunodeficiency virus. The settings on record: in vitro; cited from earlier work.
The test system of another data set is human cytomegalovirus. The settings on record: in vitro; cited from earlier work.
The mark [12] stands for this setting: Human alphaherpesvirus 1, Vero, read-out: Glycyrrhizic acid - Inhibition (%) of viral plaques.

Turning to `Nc1nc2c(ncn2COCCO)c(=O)[nH]1` [aciclovir], the “efficacy during the first infection” value in [1] (administered during the first infection) is recorded as “fairly efficient”. For the same compound, the prevention of re-infection result in data set [1] (re-infection by Herpes Simplex Virus type 1) is recorded as “not preventing re-infection”. In addition, the “efficacy in recurring infections” value in data set [1] (recurring infections) was “not very effective”. In addition, in [2] (po), the “side effects of oral treatment” value is “nausea, diarrhoea, itching, headaches, renal inadequacies and nephrotoxicity”. The “side effects of topical use” value in data set [2] is “often causes burning and irritation of mucous membranes”.

Take `CC1(C)[C@@H](O[C@H]2O[C@H](C(=O)O)[C@@H](O)[C@H](O)[C@H]2O[C@@H]2O[C@H](C(=O)O)[C@@H](O)[C@H](O)[C@H]2O)CC[C@]2(C)[C@H]3C(=O)C=C4[C@@H]5C[C@@](C)(C(=O)O)CC[C@]5(C)CC[C@@]4(C)[C@]3(C)CC[C@@H]12` [glycyrrhizic acid]: in the data set on HSV1 [3] (setting [12]), the inhibition at 200 µg/mL turned out to be 0%, the inhibition at 400 µg/mL is 10 ± 4%, the inhibition at 600 µg/mL turned out to be 27 ± 7% and the inhibition at 800 µg/mL is 50 ± 8%. For the same compound, in the data set with HSV1 [3] (setting [12]), the inhibition at 1000 µg/mL was 75 ± 12%. For the same compound, the “inhibition of viral replication” value in data set [4] (0.5 mM) is recorded as 50%. Also, in data set [4] (1 mM), the “reduction of the virus” value is given as 80%. Besides, the “inhibition of production of the virus” value in data set [4] (4 mM) is reported as 99%. Further, the antiviral activity result in data set [4] is given as “a certain antiviral activity”. Moreover, in data set [5] (0.5 mM, infected cells), the “reduction in the incorporation of glucosamine-H^3, infected cells” value is listed as “more than 10%”. Moreover, the “reduction in the synthesis of glyco-protein in infected cells” value in [5] (1 mM, infected cells) is recorded as 20%. Further, the “synthesis of viral glycoproteins” value in data set [5] (at antiviral doses) is recorded as “largely inhibits”. Moreover, the “inhibition of incorporation of glucosamine-H^3, normal cells” value in data set [6] (0.5 mM, normal cells) is listed as “no inhibition”. Also, the “inhibition of the synthesis of glyco-proteins in the control” value in data set [6] (1 mM, control (normal) cells) is “no inhibition”. Further, in data set [6] (4 mM, normal cells), the “synthesis of glyco-proteins in the normal cells” value is given as “slightly altered”. For the same compound, the cell glycoproteins synthesis entry in data set [6] (only at very high doses) is reported as “only at very high doses does it also inhibit”. The “action on the synthesis of proteins, normal cells” value in [7] is recorded as “practically irrelevant”. The “action on the synthesis of proteins, infected cells” value in data set [8] was “practically irrelevant”. Also, the “Viral production after 12 hours” value in the data set with HSV1 [9] (contact 2 hours at 37° C., 12 hours (control 3 × 10^6)) is reported as 4.2 × 10^4 PFU/ml. In addition, in the data set on HSV1 [9] (contact 2 hours at 37° C., 17 hours (control 5.4 × 10^6)), the “Viral production after 17 hours” value is 1.2 × 10^4 PFU/ml. For the same compound, the “inhibition at 12 hours from the infection” value in the data set with HSV1 [9] (12 hours) is recorded as “about 2 logarithms”. Besides, in the data set on HSV1 [9] (22 hours), the “inhibition at 22 hours from infection” value was roughly 3 logarithms and the “inhibition at 22 hours from infection (%)” value was 99.9%. The decrease in infection result in the data set with HSV1 [9] (at 12, 17 and 22 hours) is “strong decrease in infection”.

As for “chicken lysozyme: chicken lysozyme supplied by SIGMA”, the “Inhibition (%) of viral plaques with various lysozymes” value with HSV1 [3] (0.5 mg/ml) was 20 ± 4%; in the data set on HSV1 [3] (1 mg/ml), 49 ± 5%; in the data set with HSV1 [3] (2 mg/ml), 60 ± 6%; in the data set with HSV1 [3] (4 mg/ml) it was 71 ± 6%; with HSV1 [3] (6 mg/ml), 82 ± 4%. Also, the “dose dependence of the action” value with HSV1 [3] (in words) is on record as “dose-dependent”. For the same compound, in the data set on HSV1 [3] (in words), the “formation of herpetic virus plaques on VERO cells” value is “significantly inhibits”.

On to lactoferrin, for which the “antiviral / antiherpetic (HSV1) activity of lactoferrin” value in the data set on HSV1 [10] is “antiherpetic (HSV1) activity”. Besides, the “activity against human immunodeficiency virus replication” value in data set [11] is “potent activity”. Besides, in the data set on human cytomegalovirus, the “activity against human cytomegalovirus replication” value is on record as “potent activity”.
